Data taken from ChEMBL document CHEMBL5042504 (J Med Chem, 2022).
Each block holds one compound with its values, some of them ahead of it. The source made the active and inactive calls. The calls are words filed in the database; no cut-off is given here.

How the values were obtained:
Histone deacetylase 1 = Histone deacetylase 1 (Homo sapiens, UniProt Q13547); assay: Inhibition of human recombinant HDAC1 using Boc-Lys(acetyl)-AMC substrate incubated for 2 hrs by fluorescence based assay
Histone deacetylase 2 = Histone deacetylase 2 (Homo sapiens, UniProt Q92769); assay: Inhibition of human recombinant HDAC2 using Boc-Lys(acetyl)-AMC substrate incubated for 2 hrs by fluorescence based assay
[1] = target: T1, Protein deacetylase HDAC6 (Homo sapiens, UniProt Q9UBN7); assay: Inhibition of human recombinant HDAC6 using Boc-Lys(acetyl)-AMC substrate incubated for 2 hrs by fluorescence based assay
T1 sequence (Q9UBN7 whole entry): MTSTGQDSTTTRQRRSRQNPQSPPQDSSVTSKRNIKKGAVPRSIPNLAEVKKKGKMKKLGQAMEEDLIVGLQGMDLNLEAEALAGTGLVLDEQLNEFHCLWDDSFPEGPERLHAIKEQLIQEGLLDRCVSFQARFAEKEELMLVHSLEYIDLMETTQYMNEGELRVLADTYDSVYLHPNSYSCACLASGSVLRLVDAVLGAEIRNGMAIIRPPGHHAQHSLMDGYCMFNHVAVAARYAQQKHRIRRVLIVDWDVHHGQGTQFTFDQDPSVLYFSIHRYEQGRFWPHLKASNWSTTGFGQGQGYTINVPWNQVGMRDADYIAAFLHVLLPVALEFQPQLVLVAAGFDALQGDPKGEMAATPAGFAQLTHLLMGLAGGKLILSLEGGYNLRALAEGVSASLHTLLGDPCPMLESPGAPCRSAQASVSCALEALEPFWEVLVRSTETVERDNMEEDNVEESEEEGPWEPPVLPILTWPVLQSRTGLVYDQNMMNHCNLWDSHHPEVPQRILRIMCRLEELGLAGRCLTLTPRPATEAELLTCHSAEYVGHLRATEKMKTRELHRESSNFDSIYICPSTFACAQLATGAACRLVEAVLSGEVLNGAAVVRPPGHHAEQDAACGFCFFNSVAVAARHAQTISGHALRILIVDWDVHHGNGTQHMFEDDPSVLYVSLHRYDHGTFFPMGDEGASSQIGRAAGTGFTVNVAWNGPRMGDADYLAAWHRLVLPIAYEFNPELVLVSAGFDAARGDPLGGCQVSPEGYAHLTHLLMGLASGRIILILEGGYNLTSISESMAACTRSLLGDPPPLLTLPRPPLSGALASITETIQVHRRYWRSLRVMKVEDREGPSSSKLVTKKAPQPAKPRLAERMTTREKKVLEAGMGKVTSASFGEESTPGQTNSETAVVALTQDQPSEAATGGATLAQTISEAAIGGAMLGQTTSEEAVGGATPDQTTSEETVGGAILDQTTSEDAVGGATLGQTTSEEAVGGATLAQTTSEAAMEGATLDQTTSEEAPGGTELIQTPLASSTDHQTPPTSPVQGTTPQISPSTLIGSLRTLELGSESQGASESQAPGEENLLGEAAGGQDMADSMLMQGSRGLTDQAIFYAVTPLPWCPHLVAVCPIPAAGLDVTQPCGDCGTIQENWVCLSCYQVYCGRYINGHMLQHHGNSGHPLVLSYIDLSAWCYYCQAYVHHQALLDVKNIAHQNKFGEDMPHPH

Histone deacetylase 3 = Histone deacetylase 3 (Homo sapiens, UniProt O15379); assay: Inhibition of human recombinant HDAC3 using Boc-Lys(acetyl)-AMC substrate incubated for 2 hrs by fluorescence based assay
MV4-11 [2] = assay: cells; settings: Homo sapiens, MV4-11, 48 h
Description: Antiproliferative activity against human MV4-11 AML cells assessed as cell viability measured after 48 hrs by multiplate reader method

[3] = Plasma concentration in BALB/c mouse xenografted with human AML MV4-11 cells at 4 mg/kg, po; type: ADME, organism-based; settings: in vivo
[4] = Drug distribution in BALB/c mouse heart measured at 4 mg/kg, po or ip after 0.5 hrs after 0.5 hrs; type: ADME, organism-based; settings: in vivo
[5] = Drug distribution in BALB/c mouse liver measured at 4 mg/kg, po or ip after 2 to 8 hrs after 0.5 hrs; type: ADME, organism-based; settings: in vivo, time 2-8 hrs
[6] = Drug distribution in BALB/c mouse brain measured at 4 mg/kg, po or ip after 0.5 hrs after 0.5 hrs; type: ADME, organism-based; settings: in vivo
[7] = Drug distribution in BALB/c mouse brain measured at 4 mg/kg, po or ip after 2 to 8 hrs after 0.5 hrs; type: ADME, organism-based; settings: in vivo, time 2-8 hrs
MV4-11 [8] = assay: Antitumor activity against human MV4-11 cells xenografted in BALB/c mouse assessed as tumor growth inhibition at 4 mg/kg, ip administered for 24 days; type: functional, organism-based; settings: time 24.0 day
[9] = Drug distribution in tumor of BALB/c mouse xenografted with human MV4-11 cells assessed as measured after 8 hrs; type: ADME; settings: read-out: Ct
[10] = Drug distribution in BALB/c mouse liver measured at 4 mg/kg, po or ip after 0.5 hrs after 0.5 hrs; type: ADME, organism-based; settings: in vivo
[11] = Drug distribution in BALB/c mouse kidney measured at 4 mg/kg, po or ip after 0.5 hrs after 0.5 hrs; type: ADME, organism-based; settings: in vivo
[12] = Drug uptake in BALB/c mouse xenografted with human AML MV4-11 cells assessed as tumor tissue at 4 mg/kg ip measured after 0.5 to 6 hrs by LC-MS/MS; type: ADME, organism-based; settings: in vivo, time 0.5-6 hrs
[13] = Plasma concentration in BALB/c mouse xenografted with human AML MV4-11 cells at 4 mg/kg, ip; type: ADME, organism-based; settings: in vivo
[14] = Drug distribution in BALB/c mouse gut measured at 4 mg/kg, po or ip after 0.5 hrs after 0.5 hrs; type: ADME, organism-based; settings: in vivo
[15] = Drug distribution in BALB/c mouse spleen measured at 4 mg/kg, po or ip after 2 to 8 hrs after 0.5 hrs; type: ADME, organism-based; settings: in vivo, time 2-8 hrs
[16] = Drug distribution in BALB/c mouse heart measured at 4 mg/kg, po or ip after 2 to 8 hrs after 0.5 hrs; type: ADME, organism-based; settings: in vivo, time 2-8 hrs
[17] = Drug distribution in BALB/c mouse spleen measured at 4 mg/kg, po or ip after 0.5 hrs; type: ADME, organism-based; settings: in vivo
[18] = Drug distribution in BALB/c mouse lung measured at 4 mg/kg, po or ip after 2 to 8 hrs after 0.5 hrs; type: ADME, organism-based; settings: in vivo, time 2-8 hrs
[19] = Drug distribution in tumor of BALB/c mouse xenografted with human MV4-11 cells assessed as measured after 0.5 hrs; type: ADME; settings: read-out: Ct
[20] = Drug distribution in BALB/c mouse kidney measured at 4 mg/kg, po or ip after 2 to 8 hrs after 0.5 hrs; type: ADME, organism-based; settings: in vivo, time 2-8 hrs
[21] = Drug uptake in BALB/c mouse xenografted with human AML MV4-11 cells assessed as tumor tissue at 4mg/kg, po measured after 0.5 to 6 hrs by LC-MS/MS; type: ADME, organism-based; settings: in vivo, time 0.5-6 hrs
MV4-11 [22] = assay: Antitumor activity against human MV4-11 cells xenografted in BALB/c mouse assessed as tumor growth inhibition at 4 mg/kg, po administered for 24 days; type: functional, organism-based; settings: time 24.0 day
[23] = Drug distribution in tumor of BALB/c mouse xenografted with human MV4-11 cells assessed as measured after 2 hrs; type: ADME; settings: read-out: Ct
[24] = Drug distribution in BALB/c mouse lung measured at 4 mg/kg, po or ip after 0.5 hrs after 0.5 hrs; type: ADME, organism-based; settings: in vivo
[25] = Drug distribution in BALB/c mouse gut measured at 4 mg/kg, po or ip after 2 to 8 hrs after 0.5 hrs; type: ADME, organism-based; settings: in vivo, time 2-8 hrs
MV4-11 [26] = assay: Antitumor activity against human MV4-11 cells xenografted in BALB/c mouse assessed as tumor growth inhibition at 2 to 4 mg/kg, po administered for 24 days; type: functional; settings: dose 2-4 mg/kg, time 24.0 day
[27] = Oral bioavailability in CD-1 mouse at 20 mg/kg measured upto 24 hrs; type: ADME, organism-based; settings: in vivo
[28] = AUC (0 to infinity) in CD-1 mouse at 20 mg/kg, po measured upto 24 hrs; type: ADME, organism-based; parameters: route oral, dose 20 mg/kg, time <=24; settings: in vivo
[29] = Cmax in CD-1 mouse at 20 mg/kg, po measured upto 24 hrs; type: ADME, organism-based; parameters: route oral, dose 20 mg/kg, time <=24; settings: mouse, in vivo, 24 h

Chain of Histone deacetylase 1 (Q13547 whole entry): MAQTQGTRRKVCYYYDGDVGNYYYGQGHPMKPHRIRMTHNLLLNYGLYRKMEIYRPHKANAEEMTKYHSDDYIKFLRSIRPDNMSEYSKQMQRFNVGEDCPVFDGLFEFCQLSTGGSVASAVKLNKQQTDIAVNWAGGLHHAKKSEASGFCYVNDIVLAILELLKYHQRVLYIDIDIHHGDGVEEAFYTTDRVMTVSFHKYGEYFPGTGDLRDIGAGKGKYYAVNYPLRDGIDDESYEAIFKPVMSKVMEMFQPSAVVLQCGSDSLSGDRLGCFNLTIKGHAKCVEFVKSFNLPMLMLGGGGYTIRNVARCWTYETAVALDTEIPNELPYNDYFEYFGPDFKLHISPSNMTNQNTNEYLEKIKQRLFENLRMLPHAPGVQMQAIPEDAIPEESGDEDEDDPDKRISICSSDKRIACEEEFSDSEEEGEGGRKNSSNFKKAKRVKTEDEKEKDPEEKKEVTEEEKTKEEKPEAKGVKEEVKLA
Chain of Histone deacetylase 2 (Q92769 whole entry): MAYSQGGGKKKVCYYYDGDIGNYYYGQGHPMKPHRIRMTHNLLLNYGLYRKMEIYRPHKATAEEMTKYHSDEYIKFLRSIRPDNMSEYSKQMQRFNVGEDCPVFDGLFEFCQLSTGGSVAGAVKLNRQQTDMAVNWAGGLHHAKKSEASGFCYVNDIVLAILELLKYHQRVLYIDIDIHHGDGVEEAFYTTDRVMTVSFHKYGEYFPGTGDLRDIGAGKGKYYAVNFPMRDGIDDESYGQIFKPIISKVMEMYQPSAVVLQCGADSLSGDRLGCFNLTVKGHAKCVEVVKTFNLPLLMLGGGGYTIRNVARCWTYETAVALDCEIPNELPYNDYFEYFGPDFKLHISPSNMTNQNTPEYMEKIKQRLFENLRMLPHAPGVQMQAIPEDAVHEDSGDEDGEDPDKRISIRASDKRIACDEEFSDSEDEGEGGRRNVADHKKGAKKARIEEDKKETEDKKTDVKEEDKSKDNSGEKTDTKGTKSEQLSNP
Chain of Histone deacetylase 3 (O15379 whole entry): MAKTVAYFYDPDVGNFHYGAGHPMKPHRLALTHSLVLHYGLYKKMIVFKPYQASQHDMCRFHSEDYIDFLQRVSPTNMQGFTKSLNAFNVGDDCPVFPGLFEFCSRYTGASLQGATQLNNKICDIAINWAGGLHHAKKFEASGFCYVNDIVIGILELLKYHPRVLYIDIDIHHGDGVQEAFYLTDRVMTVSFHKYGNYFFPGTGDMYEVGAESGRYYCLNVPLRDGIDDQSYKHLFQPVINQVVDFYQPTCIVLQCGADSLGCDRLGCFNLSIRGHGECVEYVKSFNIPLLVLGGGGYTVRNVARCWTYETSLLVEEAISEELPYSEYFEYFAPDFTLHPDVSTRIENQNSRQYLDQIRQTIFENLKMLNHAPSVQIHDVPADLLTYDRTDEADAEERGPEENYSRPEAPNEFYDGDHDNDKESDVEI

SMILES: CCCNNC(=O)c1ccc(CNC(=O)c2cc3cc(O)ccc3o2)cc1
IC50 (Histone deacetylase 1): 3.91 nM
IC50 (Histone deacetylase 2): 16.1 nM
IC50 [1]: > 10000 nM
IC50 (Histone deacetylase 3): 0.51 nM
IC50 (MV4-11 [2]): 40 nM

SMILES: CCCNNC(=O)c1ccc(CNC(=O)c2cnc3ccccc3c2)cc1
IC50 (Histone deacetylase 1): 13.7 nM
IC50 (Histone deacetylase 2): 59.6 nM
IC50 [1]: > 10000 nM
IC50 (Histone deacetylase 3): 1.79 nM
IC50 (MV4-11 [2]): 71 nM

SMILES: CCCNNC(=O)c1ccc(CNC(=O)c2cc3cc(OC)ccc3o2)cc1
IC50 (Histone deacetylase 1): 7.4 nM
IC50 (Histone deacetylase 2): 26.1 nM
IC50 [1]: > 10000 nM
IC50 (Histone deacetylase 3): 0.28 nM
IC50 (MV4-11 [2]): 52.1 nM

SMILES: CCCNNC(=O)c1ccc(CNC(=O)c2ccc3ccccc3c2)cc1
IC50 (Histone deacetylase 1): 7.98 nM
IC50 (Histone deacetylase 2): 30.5 nM
IC50 [1]: > 10000 nM
IC50 (Histone deacetylase 3): 0.89 nM
IC50 (MV4-11 [2]): 43.6 nM

SMILES: Cc1[nH]c2ccccc2c1CCNCc1ccc(/C=C/C(=O)NO)cc1 [PANOBINOSTAT]
Drug uptake [3]: Active
Drug uptake [4]: Active
Drug uptake [5]: Active
Drug uptake [6]: Active
Drug uptake [7]: Active
Activity (MV4-11 [8]): Active
concentration at 8 h [9]: 108 ng/g
Drug uptake [10]: Active
Drug uptake [11]: Active
Drug uptake [12]: Active
Drug uptake [13]: Active
Drug uptake [14]: Active
Drug uptake [15]: Active
Drug uptake [16]: Active
Drug uptake [17]: Active
Drug uptake [18]: Active
concentration at 0.5 h [19]: 82.4 ng/g
Drug uptake [20]: Active
Drug uptake [21]: Active
Activity (MV4-11 [22]): Active
concentration at 2 h [23]: 151 ng/g
Drug uptake [24]: Active
Drug uptake [25]: Active
TGI (MV4-11 [26]): inactive

SMILES: CCCNNC(=O)/C=C/c1ccc(CNCCc2c(C)[nH]c3ccccc23)cc1
F [27]: 19.8%
AUC [28]: 265 ng·h/mL
IC50 [1]: > 10000 nM
Cmax [29]: 45.1 ng/mL

Now from value to compound:

IC50 (Histone deacetylase 1): 12.9 nM
IC50 (Histone deacetylase 2): 52.7 nM
IC50 [1]: > 10000 nM
IC50 (Histone deacetylase 3): 1.61 nM
IC50 (MV4-11 [2]): 91.2 nM
SMILES: CCCNNC(=O)c1ccc(CNC(=O)c2cc3cc(F)ccc3[nH]2)cc1

IC50 (Histone deacetylase 1): 7.85 nM
IC50 (Histone deacetylase 2): 23.7 nM
IC50 [1]: > 10000 nM
IC50 (Histone deacetylase 3): 0.62 nM
IC50 (MV4-11 [2]): 159 nM
SMILES: CCCNNC(=O)c1ccc(CNC(=O)c2cc3cc(Br)ccc3o2)cc1

IC50 (Histone deacetylase 1): 3.52 nM
IC50 (Histone deacetylase 2): 15.1 nM
IC50 [1]: > 10000 nM
IC50 (Histone deacetylase 3): 0.38 nM
SMILES: CCCNNC(=O)c1ccc(CNC(=O)c2cc3ccccc3o2)cc1

IC50 (Histone deacetylase 1): 16.2 nM
IC50 (Histone deacetylase 2): 41.4 nM
IC50 [1]: > 10000 nM
IC50 (Histone deacetylase 3): 2.03 nM
IC50 (MV4-11 [2]): 59.7 nM
SMILES: CCCNNC(=O)c1ccc(CNC(=O)c2ccc3cnccc3n2)cc1

IC50 (Histone deacetylase 1): 8.91 nM
IC50 (Histone deacetylase 2): 28.1 nM
IC50 [1]: > 10000 nM
IC50 (Histone deacetylase 3): 0.62 nM
IC50 (MV4-11 [2]): 248 nM
SMILES: CCCNNC(=O)c1ccc(CNC(=O)c2cc3cc(Cl)ccc3o2)cc1
